Columns and labels:
mature B cells = test: Apoptosis assay (propidium iodide flow cytometry) in mature B cells; format: cell-based, mouse; details: inhibitor added 15 minutes before stimulation with anti-Ig
Description: Purified populations of either immature B cells obtained from the spleens of day 14 autoreconstituting mice or mature B cells isolated from spleens of normal adult mice were incubated in the absence or presence of 50 μg/ml of rabbit anti-mouse IgM F(ab′)2 fragments (anti-Ig) for 16-18 hours. […] Similar results were observed using a modified TUNEL technique that detects nicked DNA.
The role of PKC in preventing BCR-induced apoptosis of immature B cells was also examined using inhibitors of PKC.
Purified B cells were cultured under various conditions overnight in either sterile 2 ml click-cap tubes or 96-well plates. PKC inhibitors were added 15 minutes before the addition of the stimulant. After 14-18 hours in the case of immature B cells or 24 hours in the case of mature B cells, the cells were harvested and washed in PBS containing 2% FCS. Cells were fixed and permeabilized by resuspending in 70% ethanol made in 1xPBS and incubating at −20° C. for at least 2 hours. […] The cells were stained at 4° C. overnight and analyzed by flow cytometry on a Becton Dickinson FACScan using LYSYS II software. The mean percentages of apoptotic cells and the standard errors for each culture condition were determined and significance was assessed by the Student's t-test.

immature B cells = test: Apoptosis assay (relative DNA content, propidium iodide flow cytometry) in immature B cells; format: cell-based, mouse; details: late-stage immature B cells, 18 hours, anti-IgM F(ab′)2 50 μg/ml plus phorbol ester (PMA 10 ng/ml)
Description: Experiments were performed using an in vitro model system that makes use of an immature population of B cells purified from the spleens of adult mice after sublethal irradiation. Immature B cells obtained from these autoreconstituting mice are phenotypically immature and respond identically to immature B cells purified from either […] bone marrow (Norvell, A. et al. 1995. J. Immunol. 154:4404; Norvell, A. and J. G. Monroe. 1996. J. Immunol. 156:1328). This homogeneous population of immature B cells is devoid of pre-B cells and mature B cells found in neonatal spleen and adult bone marrow, respectively. Further, unlike the immature B cells purified from either bone marrow or neonatal spleen, immature B cells from autoreconstituting mice can be isolated without positive selection on anti-Ig panning plates. Since large numbers of unmanipulated immature B cells can be obtained, autoreconstituting B cells are an ideal system for analyzing biochemical events responsible for tolerogenic signal transduction. The B cells isolated from these mice represent a transitional stage of development in which cells are subject to negative selection. This in vitro system uses apoptosis as an indicator of negative selection.
Purified populations of either immature B cells obtained from the spleens of day 14 autoreconstituting mice or mature B cells isolated from spleens of normal adult mice were incubated in the absence or presence of 50 μg/ml of rabbit anti-mouse IgM F(ab′)2 fragments (anti-Ig) for 16-18 hours. […]
The ability of PMA to protect immature B cells from BCR-induced apoptosis was assessed in the presence of the same two inhibitors. […]
Purified B cells were cultured under various conditions overnight in either sterile 2 ml click-cap tubes or 96-well plates. […] The cells were stained at 4° C. overnight and analyzed by flow cytometry on a Becton Dickinson FACScan using LYSYS II software. The mean percentages of apoptotic cells and the standard errors for each culture condition were determined and significance was assessed by the Student's t-test.

[1] = system: PKC-depleted mature B cells; test: Modified TUNEL analysis of PKC-depleted mature B cells; format: cell-based, mouse
Description: To assess the role of PKC activation in the prevention of antigen-mediated apoptosis, the ability of anti-Ig to induce apoptosis in PKC-depleted mature B cells was determined. […] After overnight treatment, the cells were washed expansively and subjected to an apoptotis analysis in which B cells were recultured with medium alone, anti-Ig, anti-Ig and PMA or anti-Ig and 4αPDD. After 8 hours incubation, the cells were harvested and subjected to a modified TUNEL analysis. […]. After PKC depletion, mature B cells were specifically susceptible to anti-Ig-mediated apoptosis.
In some cases, the frequency of apoptotic cells was quantitated using a modified TUNEL assay. Briefly, 1×10^6 cells were fixed in 2.5% formaldehyde in 1xPBS. The fixed cells were permeabilized in 0.2 ml 0.1% Triton/0.1% citrate for 2 minutes on ice. After washing, cells were incubated in 50 μl of nick translation reagent, which consists of 5 μl nick translation buffer (500 mM Tris, pH 7.5; 100 mM MgSO4; 1 mM DTT), 0.03 μl of fluorescein-dUTP (1 nmol/μl), 1 µl dTTP (0.7 nmol/μl), 1 μl each of dATP, dCTP, dGTP (1 nmol/μl) and 0.1 μl DNA polymerase (5 U/μl) and incubated for at least 1 hour at 37° C. Cells were then washed and analyzed by flow cytometry.

[2] = system: BCR-induced increase in intracellular calcium; test: Measurement of intracellular calcium in Fura-2-AM loaded B cells; format: cell-based, mouse
Description: Since PMA was capable of rescuing mature, PKC-depleted B cells from anti-Ig-induced apoptosis, experiments were performed to assess whether PMA was capable of desensitizing the BCR in these cells.
Purified B cells were washed in HBSS without phenol red and supplemented with 2% FCS. For loading, cells were resuspended in HBSS without phenol red and supplemented with 10% FCS. Fura-2 acetoxymethyl ester was added to a final concentration of 1 μM from a 1 mM stock made in DMSO. Cells were incubated in light tight tubes for 30 minutes at 30° C. with occasional inversion. Cells were then washed twice with HEBSS+2% FCS and resuspended at a concentration of 3.3×10^7/ml in HBSS+10% FCS. Fluorometric analysis of dyed cells was performed using a luminescence spectrometer. Excitation was at 340 nm and 380 nM with emission monitored at 510 nm. B cells were diluted to 2×10^6/ml in HBSS and equilibrated for 2 minutes, at which time a baseline spectrum was read. The cells were stimulated with rabbit anti-mouse IgM F(ab′)2 fragments (50 μg/ml) and the response measured. Cells were then lysed with Triton X-100 and Fmax and Fmin were measured by the chelation of extracellular calcium with the addition of EGTA. Calcium traces were calculated by the Intracellular Biochemistry Application (Perkin-Elmer) using these values.

PKCβ = target: T1, PKCβ (Mus musculus, UniProt P68404); test: PKC depletion monitored by Western blot analysis; format: cell-based; details: PDBu-treated B cells
T1 construct: endogenous in cells; host or cells: primary mature splenic B cells of mice
T1 sequence (P68404 whole entry): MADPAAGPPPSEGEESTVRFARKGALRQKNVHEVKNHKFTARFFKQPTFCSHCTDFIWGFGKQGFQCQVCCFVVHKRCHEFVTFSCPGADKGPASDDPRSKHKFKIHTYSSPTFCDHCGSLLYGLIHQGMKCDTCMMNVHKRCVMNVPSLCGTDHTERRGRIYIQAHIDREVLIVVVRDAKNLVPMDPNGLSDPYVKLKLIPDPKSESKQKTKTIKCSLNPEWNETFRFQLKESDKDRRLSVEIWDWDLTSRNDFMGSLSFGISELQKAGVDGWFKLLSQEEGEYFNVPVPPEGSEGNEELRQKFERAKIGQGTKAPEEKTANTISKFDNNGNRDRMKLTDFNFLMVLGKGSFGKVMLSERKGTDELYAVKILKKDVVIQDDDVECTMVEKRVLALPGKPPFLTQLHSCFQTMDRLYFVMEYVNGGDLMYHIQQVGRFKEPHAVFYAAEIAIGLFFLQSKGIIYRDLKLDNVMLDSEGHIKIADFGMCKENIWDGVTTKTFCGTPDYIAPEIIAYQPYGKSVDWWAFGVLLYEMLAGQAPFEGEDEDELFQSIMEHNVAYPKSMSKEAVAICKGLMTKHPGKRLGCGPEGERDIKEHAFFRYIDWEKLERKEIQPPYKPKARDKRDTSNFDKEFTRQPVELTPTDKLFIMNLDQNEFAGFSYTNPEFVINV
Description: (§1) Therefore, experiments were performed to determine if PKC-depleted mature B cells were susceptible to BCR-induced apoptosis. […] PKC depletion in PDBu- or mock-treated cultures was monitored by Western blot analysis. […] PKC levels in unstimulated immature and mature cells were quite similar, making it unlikely that differential regulation of PKC activity would occur at the level of expression of the individual isoenzyes.
(§2) For analysis of postnuclear extracts, 1×10^7 cells were lysed in 50 μl of Triton-X lysis buffer (0.1% Triton-X-100; 100 mM Tris, pH 8.0; 10.8 μg/ml aprotinin; 1.5 μg/ml each of leupeptin, pepstatin A, chymostatin, and antipain; 2 mM phenylmethylsulfonyl fluoride; 1 mM N-ethylmaleimide) on ice for 30 minutes. Lysates were microcentrifuged at 14,000× g at 4° C. for 10 minutes to remove the Triton-X insoluble fraction. Lysates from equivalent cell numbers were fractionated on SDS-PAGE gels and electroblotted onto Immobilon (Millipore, Bedford, Mass.). Blots were incubated overnight in Tris-buffered saline with Tween-TBST (10 mM Tris, pH 8.0; 137 mM NaCl; 0.05% Tween 20) plus 2% bovine serum albumin to block nonspecific binding. Membranes were washed twice with TBST and probed with the appropriate antibody solutions for 90 minutes, then washed 3 times in TBST, followed by secondary incubation with the appropriate horseradish peroxidase-conjugated reagents. Three washes with TBST were conducted before detection with an enhanced chemiluminescence system.

PKCδ = target: T2, PKCδ (Mus musculus, UniProt P28867); test: PKC depletion monitored by Western blot analysis; format: cell-based; details: PDBu-treated B cells
T2 construct: endogenous in cells; host or cells: primary mature splenic B cells of mice
T2 sequence (P28867 whole entry): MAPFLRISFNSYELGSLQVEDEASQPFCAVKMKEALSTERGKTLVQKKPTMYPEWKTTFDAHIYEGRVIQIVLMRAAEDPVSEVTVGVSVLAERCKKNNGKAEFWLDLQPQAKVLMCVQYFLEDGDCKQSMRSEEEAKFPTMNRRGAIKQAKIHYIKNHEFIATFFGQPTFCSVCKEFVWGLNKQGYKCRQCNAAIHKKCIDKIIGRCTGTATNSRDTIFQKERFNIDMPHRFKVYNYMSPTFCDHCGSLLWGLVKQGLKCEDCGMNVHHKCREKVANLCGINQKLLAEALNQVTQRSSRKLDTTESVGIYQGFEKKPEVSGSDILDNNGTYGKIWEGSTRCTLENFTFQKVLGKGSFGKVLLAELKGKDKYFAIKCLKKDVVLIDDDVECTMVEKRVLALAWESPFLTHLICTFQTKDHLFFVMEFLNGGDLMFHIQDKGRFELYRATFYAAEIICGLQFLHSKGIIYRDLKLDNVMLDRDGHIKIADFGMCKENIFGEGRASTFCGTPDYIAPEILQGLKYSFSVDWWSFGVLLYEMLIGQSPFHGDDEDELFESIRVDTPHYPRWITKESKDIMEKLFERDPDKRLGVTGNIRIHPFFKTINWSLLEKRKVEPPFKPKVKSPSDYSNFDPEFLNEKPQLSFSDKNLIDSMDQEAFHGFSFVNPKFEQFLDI
Description: as §1, §2

PKCε = target: T3, PKCε (Mus musculus, UniProt P16054); test: PKC depletion monitored by Western blot analysis; format: cell-based; details: PDBu-treated B cells
T3 construct: endogenous in cells; host or cells: primary mature splenic B cells of mice
T3 sequence (P16054 1-737): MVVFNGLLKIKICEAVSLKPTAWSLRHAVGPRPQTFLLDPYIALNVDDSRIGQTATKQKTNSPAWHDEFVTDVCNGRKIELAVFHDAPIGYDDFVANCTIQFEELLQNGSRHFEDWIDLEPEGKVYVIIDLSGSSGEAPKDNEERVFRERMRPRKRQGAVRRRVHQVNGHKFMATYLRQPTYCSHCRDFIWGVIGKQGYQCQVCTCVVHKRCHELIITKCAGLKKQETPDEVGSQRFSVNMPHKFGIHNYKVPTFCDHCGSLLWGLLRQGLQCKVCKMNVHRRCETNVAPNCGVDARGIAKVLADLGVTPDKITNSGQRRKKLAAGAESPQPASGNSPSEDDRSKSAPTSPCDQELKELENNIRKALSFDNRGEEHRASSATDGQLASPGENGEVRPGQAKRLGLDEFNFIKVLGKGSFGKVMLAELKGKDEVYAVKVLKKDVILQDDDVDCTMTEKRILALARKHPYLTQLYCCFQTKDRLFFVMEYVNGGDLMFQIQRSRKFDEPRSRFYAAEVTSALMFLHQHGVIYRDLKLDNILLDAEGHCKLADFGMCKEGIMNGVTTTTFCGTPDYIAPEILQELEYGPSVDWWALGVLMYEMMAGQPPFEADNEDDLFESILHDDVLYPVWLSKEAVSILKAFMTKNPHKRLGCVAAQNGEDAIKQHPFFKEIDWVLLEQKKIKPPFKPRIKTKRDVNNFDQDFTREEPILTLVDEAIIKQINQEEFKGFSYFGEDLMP
Description: as §1, §2

`CN(C)C[C@H]1CCn2c(c(C3=C(c4cn(C)c5ccccc45)C(=O)NC3=O)c3ccccc32)C1` [Ro-32-0432] was tested, and the induction of apoptosis (mature B cells) was “led to induction of apoptosis”.
`CCCCCCCCCC(=O)O[C@@H]1[C@@H](C)[C@@]2(O)[C@@H](C=C(CO)C[C@@]3(O)C(=O)C(C)=C[C@@H]23)[C@@H]2C(C)(C)[C@]12OC(=O)CCCCCCCCC` [4αPDD] was tested, and the “protection (rescue) from anti-IgM-induced apoptosis” value (shortened to “protection (rescue)”) (immature B cells) was “efficiently rescued cells”.
With `CN(C)CCCn1cc(C2=C(c3c[nH]c4ccccc34)C(=O)NC2=O)c2ccccc21` [bisindoylmaleimide I] the induction of apoptosis (mature B cells) was “led to induction of apoptosis”.
With `CCCCCCCCCC(=O)O[C@@H]1[C@@H](C)[C@@]2(O)[C@@H](C=C(CO)C[C@]3(O)C(=O)C(C)=C[C@@H]23)[C@@H]2C(C)(C)[C@]12OC(=O)CCCCCCCCC` [4βPDD] the “protection (rescue)” value (immature B cells) was “did not rescue cells”.
In the case of `CCCCCCCCCCCCCC(=O)O[C@@H]1[C@@H](C)[C@@]2(O)[C@@H](C=C(CO)C[C@]3(O)C(=O)C(C)=C[C@@H]23)[C@@H]2C(C)(C)[C@]12OC(C)=O` [PMA], the “rescue from anti-Ig-induced apoptosis” value ([1]; PDBu-treated (PKC-depleted) mature B cells, anti-Ig and PMA, 8 hours) is reported as “still capable of rescuing the cells from anti-Ig-induced apoptosis”, the “effect on BCR-induced calcium flux” value ([2]; PDBu-treated cells) is reported as “did not alter the BCR-induced calcium flux” and the “effect on BCR-induced increase in intracellular calcium” value ([2]; mock-treated B cells) is reported as “efficiently reduced the BCR-induced increase in intracellular calcium”. The “protection (rescue)” value (immature B cells) was “significant protection from anti-IgM-induced apoptosis”.
In the case of `CCCC(=O)O[C@@H]1[C@@H](C)[C@@]2(O)[C@@H](C=C(CO)C[C@]3(O)C(=O)C(C)=C[C@@H]23)[C@@H]2C(C)(C)[C@]12OC(=O)CCC` [PDBu], the “depletion of PKCβ” value (PKCβ) is reported as “efficiently depleted”, the “depletion of PKCδ” value (PKCδ) is reported as “also depleted, although not as efficiently” and the “depletion of PKCε” value (PKCε) is reported as “also depleted, although not as efficiently”. For the same compound, the “number of apoptotic cells after anti-Ig” value ([1]; mature B cells cultured overnight with 100 ng/ml PDBu, washed, recultured 8 hours with anti-Ig) was “significant and striking increase in the number of apoptotic cells”.

— patent US20020019332A1, “METHOD OF INDUCING APOPTOSIS IN B-LYMPHOCYTES” (priority 1999, published 2002)
